The values that follow come from ChEMBL document CHEMBL4673231, “Novel isoniazid embedded triazole derivatives: Synthesis, antitubercular and antimicrobial activity evaluation” (Bioorg Med Chem Lett, 2020).

The subject of series [1] is Klebsiella aerogenes. In words: Antibacterial activity against Enterobacter aerogenes assessed as diameter of inhibition zone at 1 mg/ml incubated for 24 hrs by agar well diffusion assay. Format: functional. As to conditions: read-out: DIZ. Background: In agar diffusion tests the substance spreads into inoculated agar from a disc or well.
For a further series, the system named is Bacillus cereus. The series is described as follows: Antibacterial activity against Bacillus cereus assessed as diameter of inhibition zone at 1 mg/ml incubated for 24 hrs by agar well diffusion assay. As to conditions: for zone of inhibition at 1000 µg/mL: read-out: DIZ. The format is functional.
For series [2], the system named is Salmonella typhi. The series is described as follows: Antibacterial activity against Salmonella typhi ATCC 9207 by CLSI method. The format is functional, Salmonella enterica subsp. enterica serovar Typhi. The settings on record: Salmonella enterica.
The subject of the next series is Aspergillus niger. In words: Antifungal activity against Aspergillus niger assessed as diameter of inhibition zone at 1 mg/ml incubated for 24 hrs by agar well diffusion assay. The format is functional. As to conditions: for zone of inhibition at 1000 µg/mL: read-out: DIZ.
In series [3] the test system is Klebsiella aerogenes. In words: Antibacterial activity against Enterobacter aerogenes ATCC 13048 by CLSI method. The format is functional.
For series [4], the system named is Staphylococcus aureus. The series is described as follows: Antibacterial activity against Staphylococcus aureus assessed as diameter of inhibition zone at 1 mg/ml incubated for 24 hrs by agar well diffusion assay. Format: functional. The settings on record: for zone of inhibition at 1000 µg/mL: read-out: DIZ.
The next series has as its system Shigella boydii. The series is described as follows: Antibacterial activity against Shigella boydii assessed as diameter of inhibition zone at 1 mg/ml incubated for 24 hrs by agar well diffusion assay. The settings on record: for zone of inhibition at 1000 µg/mL: read-out: DIZ. Format: functional.
The subject of series [5] is Salmonella typhi. The series is described as follows: Antibacterial activity against Salmonella typhi assessed as diameter of inhibition zone at 1 mg/ml incubated for 24 hrs by agar well diffusion assay. The format is functional, Salmonella enterica subsp. enterica serovar Typhi. The settings on record: for zone of inhibition at 1000 µg/mL: Salmonella enterica, read-out: DIZ.

Series [6] has as its system Salmonella enterica subsp. enterica serovar Abony. In words: Antibacterial activity against Salmonella enterica subsp. enterica serovar Abony assessed as diameter of inhibition zone at 1 mg/ml incubated for 24 hrs by agar well diffusion assay. The settings on record: for zone of inhibition at 1000 µg/mL: read-out: DIZ. Format: functional.
For another series, the system named is Pseudomonas aeruginosa. In words: Antibacterial activity against Pseudomonas aeruginosa assessed as diameter of inhibition zone at 1 mg/ml incubated for 24 hrs by agar well diffusion assay. Format: functional. As to conditions: for zone of inhibition at 1000 µg/mL: read-out: DIZ.
The subject of series [7] is Staphylococcus aureus. The series is described as follows: Antibacterial activity against Staphylococcus aureus ATCC 6538 by CLSI method. The format is functional.
The test system of the next series is Escherichia coli. In words: Antibacterial activity against Escherichia coli assessed as diameter of inhibition zone at 1 mg/ml incubated for 24 hrs by agar well diffusion assay. The format is functional. As to conditions: for zone of inhibition at 1000 µg/mL: read-out: DIZ.
The subject of another series is Bacillus subtilis. In words: Antibacterial activity against Bacillus subtilis assessed as diameter of inhibition zone at 1 mg/ml incubated for 24 hrs by agar well diffusion assay. The format is functional. As to conditions: for zone of inhibition at 1000 µg/mL: read-out: DIZ.
The test system of series [8] is Mycobacterium tuberculosis. The series is described as follows: Antimycobacterial activity against Mycobacterium tuberculosis H37Rv assessed as reduction in microbial growth incubated for 7 days by alamar blue assay. Format: functional. As to conditions: 168 h, time 7 day. A general note: The colour change of resazurin is a common sign of viable cells or microbes.

Series [9] is described as follows: Cytotoxicity against mouse RAW264.7 cells assessed as reduction in cell viability at 25 ug/ml incubated for 48 hrs by MTT assay. Format: cell-based. The settings on record: at 25 µg/mL, read-out: INH. For orientation: Formazan colour is commonly taken as a measure of viable cells.
In the next series the test system is Saccharomyces cerevisiae. The series is described as follows: Antifungal activity against Saccharomyces cerevisiae assessed as diameter of inhibition zone at 1 mg/ml incubated for 24 hrs by agar well diffusion assay. Format: functional. The settings on record: read-out: DIZ.

By MIC is commonly meant the smallest concentration in the dilution series that meets the test's criterion for growth inhibition.

The structures appear in SMILES notation. ≈ marks a conversion by molar mass, not a printed value. Calls of active or inactive are those of the source.

On to `COc1ccc(-n2cc(COc3ccc([N+](=O)[O-])cc3/C=N/NC(=O)c3ccncc3)nn2)cc1`, for which the zone of inhibition at 1000 µg/mL was determined as 14 mm in the series on Klebsiella aerogenes [1]; 12 mm with Bacillus cereus; 11 mm in the series on Aspergillus niger; 10 mm with Staphylococcus aureus [4]; 14 mm in the series with Shigella boydii; 12 mm with Salmonella typhi [5]. For the same molecule, the zone of inhibition at 1000 µg/mL in [6] was 13 mm; with Pseudomonas aeruginosa it was 12 mm; with Escherichia coli it was 12 mm; in the series on Bacillus subtilis it was 6 mm. In addition, the MIC against Salmonella typhi [2] is 340 µg/mL (≈ 718 µM); against Klebsiella aerogenes [3], 150 µg/mL (≈ 317 µM); with Staphylococcus aureus [7], 180 µg/mL (≈ 380 µM); in series [8], greater than 25 µg/mL.

As to `Cc1ccccc1-n1cc(COc2ccc([N+](=O)[O-])cc2/C=N/NC(=O)c2ccncc2)nn1`, the zone of inhibition at 1000 µg/mL stood at 10 mm in the series with Klebsiella aerogenes [1]; 12 mm in the series with Bacillus cereus; 9 mm with Aspergillus niger; 13 mm in the series with Staphylococcus aureus [4]; 14 mm with Shigella boydii; 12 mm in the series with Saccharomyces cerevisiae. Besides, the zone of inhibition at 1000 µg/mL turned out to be 11 mm with Salmonella typhi [5], 12 mm in series [6], 10 mm in the series on Pseudomonas aeruginosa and 11 mm in the series with Bacillus subtilis. Also, the MIC was determined as 270 µg/mL (≈ 590 µM) in the series with Salmonella typhi [2], 190 µg/mL (≈ 415 µM) in the series on Klebsiella aerogenes [3], 310 µg/mL (≈ 678 µM) in the series on Staphylococcus aureus [7] and 1.56 µg/mL in series [8]. The cytotoxicity at 48 h, 25 ug/ml in [9] is 24.2%. Further, the “diameter of the inhibition zone (DIZ)” value in the series on Escherichia coli is “inactive”.

Regarding `CN(C)[C@@H]1C(O)=C(C(N)=O)C(=O)[C@@]2(O)C(O)=C3C(=O)c4c(O)cccc4[C@@](C)(O)[C@H]3C[C@@H]12` [TETRACYCLINE], the zone of inhibition at 1000 µg/mL was 24 mm with Klebsiella aerogenes [1]; 32 mm in the series with Bacillus cereus; 22 mm in the series with Staphylococcus aureus [4]; 29 mm in the series with Shigella boydii; 28 mm with Salmonella typhi [5]; 27 mm in series [6]. The zone of inhibition at 1000 µg/mL with Pseudomonas aeruginosa was 28 mm; in the series with Escherichia coli it was 29 mm; with Bacillus subtilis it was 18 mm. Also, the values for the MIC in the series with Salmonella typhi [2], in the series with Klebsiella aerogenes [3] and with Staphylococcus aureus [7] were 20 µg/mL (≈ 45 µM), 15 µg/mL (≈ 33.8 µM) and 20 µg/mL (≈ 45 µM), respectively.

In the case of `O=C(N/N=C/c1cc([N+](=O)[O-])ccc1OCc1cn(-c2cccc(Cl)c2)nn1)c1ccncc1`, the zone of inhibition at 1000 µg/mL in the series with Klebsiella aerogenes [1] amounted to 13 mm; in the series with Bacillus cereus it was 10 mm; in the series with Aspergillus niger, 9 mm; in the series on Staphylococcus aureus [4], 15 mm; with Shigella boydii, 12 mm; in the series on Saccharomyces cerevisiae it was 10 mm. The zone of inhibition at 1000 µg/mL in [6] is 10 mm; in the series on Pseudomonas aeruginosa, 8 mm; in the series on Escherichia coli, 10 mm; in the series with Bacillus subtilis it was 11 mm. For the same molecule, the MIC in the series with Salmonella typhi [2] was 140 µg/mL (≈ 293 µM); against Klebsiella aerogenes [3] it was 260 µg/mL (≈ 544 µM); against Staphylococcus aureus [7] it was 220 µg/mL (≈ 460 µM); in series [8] it was 12.5 µg/mL. The cytotoxicity at 48 h, 25 ug/ml in series [9] came to 20.1%.

`O=C(N/N=C/c1cc([N+](=O)[O-])ccc1OCc1cn(-c2ccccc2Cl)nn1)c1ccncc1`: the zone of inhibition at 1000 µg/mL with Klebsiella aerogenes [1] is 10 mm; with Bacillus cereus it was 11 mm; in the series on Aspergillus niger, 10 mm; in the series with Staphylococcus aureus [4], 12 mm; with Shigella boydii, 7 mm; in the series on Saccharomyces cerevisiae, 12 mm. The values for the zone of inhibition at 1000 µg/mL in the series with Salmonella typhi [5], with Escherichia coli and with Bacillus subtilis were 10 mm, 12 mm and 9 mm, respectively. The MIC in the series on Salmonella typhi [2] came out at 170 µg/mL (≈ 356 µM); in the series with Klebsiella aerogenes [3], 130 µg/mL (≈ 272 µM); in the series with Staphylococcus aureus [7] it was 200 µg/mL (≈ 419 µM); in [8] it was 1.56 µg/mL. For the same molecule, the cytotoxicity at 48 h, 25 ug/ml in series [9] amounted to 24.2%. The “diameter of the inhibition zone (DIZ)” value (in series [6]; with Pseudomonas aeruginosa) was “inactive” in each case.

On to `O=C(N/N=C/c1cc([N+](=O)[O-])ccc1OCc1cn(-c2ccccc2)nn1)c1ccncc1`, for which the zone of inhibition at 1000 µg/mL in the series with Klebsiella aerogenes [1] amounted to 14 mm; with Saccharomyces cerevisiae, 10 mm; in the series with Pseudomonas aeruginosa it was 13 mm; with Escherichia coli, 12 mm. The “diameter of the inhibition zone (DIZ)” value (in the series with Bacillus cereus; in the series with Aspergillus niger; with Staphylococcus aureus [4]; in the series with Shigella boydii; in the series on Salmonella typhi [5] (Salmonella enterica subsp. enterica serovar Typhi); in series [6]) was “inactive” each time. The “diameter of the inhibition zone (DIZ)” value with Bacillus subtilis was “inactive”. The cytotoxicity at 48 h, 25 ug/ml in series [9] came to 25.7%. The MIC in [8] is 0.78 µg/mL.

As for `COc1ccccc1-n1cc(COc2ccc([N+](=O)[O-])cc2/C=N/NC(=O)c2ccncc2)nn1`, the zone of inhibition at 1000 µg/mL was 12 mm in the series with Klebsiella aerogenes [1]; 12 mm in the series with Bacillus cereus; 10 mm in the series on Aspergillus niger; 12 mm in the series on Staphylococcus aureus [4]; 13 mm in the series on Shigella boydii; 10 mm with Saccharomyces cerevisiae. Further, the zone of inhibition at 1000 µg/mL amounted to 11 mm in the series on Salmonella typhi [5]; 8 mm in series [6]; 8 mm in the series with Pseudomonas aeruginosa; 11 mm in the series on Escherichia coli; 12 mm in the series with Bacillus subtilis. Moreover, the MIC against Salmonella typhi [2] was 230 µg/mL (≈ 486 µM); against Klebsiella aerogenes [3] it was 370 µg/mL (≈ 781 µM); with Staphylococcus aureus [7], 450 µg/mL (≈ 950 µM); in [8], greater than 25 µg/mL.
